One series deals with SARS-Covid 2 virus. Conditions: cited Monash lab experiments; cited from earlier work.
For the next series, the system named is rats. In words: Histopathological examination of nostrils, nasal cavity and pharynx (local tolerability). The settings on record: dose as high as 12.5 mg/kg in rats, intranasal. The series is classed as in vivo. From the text:
Subsequent to the last blood sampling animals were sacrificed by induction of a deep anesthesia with isoflurane followed by rapid exsanguinations. Then both nostrils and nasal cavity including pharynx were collected from all animals and preserved in neutral buffered formaldehyde (4%) for histopathological examination. Afterwards, tissues for the histopathological investigation were trimmed and embedded in paraplast®. The slides were HE (hematoxylin and eosin)-stained and histopathologically examined.

Series [1] is described as follows: Particle size distribution (PSD) by laser diffraction, Malvern Mastersizer 2000/3000. The series is classed as physicochemical. How it is done:
The mean particle size distribution is preferably obtained by laser diffraction. In a laser diffraction measurement, a laser beam passes through a dispersed particulate sample and the angular variation in intensity of the scattered light is measured. Large particles scatter light at small angles relative to the laser beam and small particles scatter light at large angles. The angular scattering intensity data is then analyzed to calculate the size of the particles that created the scattering pattern using the Mie theory of light scattering. The particle size is reported as a volume equivalent sphere diameter. The folded optical design in the Mastersizer 3000 (from Malvern Panalytical), which was in particular used for the measurements, provides a particle size range from 10 nm up to 3.5 mm using a single optical measurement path. The Mastersizer 3000 uses a sequential combination of measurements with red and blue light sources to measure across the entire particle size range.
The pharmaceutically active agent is grinded in a mortar/pestle system to the appropriate particles size prior to its use. Afterwards the Particles Size Distribution (PSD) is measured using a Malvern Master Sizer 3000. The samples after grinding are stored in tightly closed brown glass bottles.
The pharmaceutically active agent is micronised to the desired particles size using a jet mill (e.g. from SpiraNo 100 from MCKO, Germany) and screw dosing system (e.g. ZD 9 from Three-Tec Ltd., Seon, Switzerland). The diameter of the injection nozzle is selected at about 6 mm, the milling gas pressure about 2 bar, the milling temperature is about 18° C. The duration of the process is about 5-10 minutes depending on the particle size of the non-micronised active agent. Afterwards the PSD is measured with a Malvern Master Sizer 3000. The samples after micronisation are stored in tightly closed brown glass bottles.
Afterwards the PSD is measured with a Malvern Master Sizer 3000. In addition, the Zetapotential, an index for the stability of the multiparticulate suspensions is measured using a Zeta Sizer (e.g. Nano ZS) from Malvern Instruments (Dynamic Laser diffraction).
In some embodiments, the PSD of the pharmaceutically active agent, provided for the preparation of its multiparticulate suspension according to procedure 1 and procedure 2 (grinded/micronised), was measured using a Malvern Mastersizer 2000 or 3000 (in water as dispersion medium, stirrer speed 1500 rpm, Mie presentation) to give the following results:
In some embodiments, the PSD of the pharmaceutically active agent in multiparticulate suspension prepared according to procedure 3 (wet ball milling with Delta Vita 1), procedure 4 (wet ball milling Getzmann/Frewitt), procedure 5 (bulk microsuspension) and procedure 6 (final product) was measured using a Malvern Mastersizer 2000 or 3000 (in water as dispersion medium, stirrer speed 1500 rpm, Mie presentation).

In the case of ivermectin, in the series on SARS-Covid 2 virus, the “activity against SARS-Covid 2 virus” value was “active”. For the same substance, the “tolerability of the active ingredient” value in the series with rats is “well tolerated”.
In the case of ivermectin [05KB21.HM00155], in series [1] (API batch after grinding), the D10 came out at 2.02 μm, the D50 was found to be 6.89 μm and the D90 stood at 32.0 μm.
As for ivermectin [05KB21.HM00170-], in series [1] (API batch after micronisation), the D10 came out at 0.97 μm, the D50 is recorded as 2.22 μm and the D90 amounted to 4.35 μm.

The record behind these values is US20250064841A1, “Aqueous Composition Comprising Avermectins” (HWI Pharma Services GmbH, priority 2022, published 2025).
